Each structure is given as a SMILES string.

The subject of the assay is neutrophils isolated from healthy donors. As to the kind of experiment: In vitro NETosis assay (SEM images, MATLAB quantification). The format is cell-based, human. The conditions noted are these: healthy donor neutrophils pooled n=4, 6 hrs.

With `CNc1ccc2oc(C[C@H]3O[C@@]4(CC[C@H]3C)O[C@H]([C@H](C)C(=O)c3ccc[nH]3)[C@H](C)C[C@H]4C)nc2c1C(=O)O` [A23187], the “induction of NETosis in healthy neutrophils” value is listed as “stimulated to NETosis”.
On to `CCCCCCCCCCCCCC(=O)O[C@@H]1[C@@H](C)[C@@]2(O)[C@@H](C=C(CO)C[C@]3(O)C(=O)C(C)=C[C@@H]23)[C@@H]2C(C)(C)[C@]12OC(C)=O` [PMA, Phorbol 12-myristate 13-acetate], for which the “induction of NETosis in healthy neutrophils” value was “stimulated to NETosis”.

These data come from patent US20240383971A1, “Anti-DFS70 Autoantibodies and methods of attenuating formation of nets” (McMaster University, priority 2023, published 2024).
